Test system: 362531-283-R-J2-PDC complex spheroid viability
Test: Anticancer human tumor 362531-283-R-J2-PDC patient-derived colon adenocarcinoma cell line growth inhibition [RAS]
Conditions: for IC50: curve of first compound; for viability, T/C: stronger effect = lower value
Summary of the method: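 Agents were tested in combination matrices in half-log decrements from a top concentration at or near clinical Cmax (10 microM if undetermined). Targets were multi-cell spheroids of tumour lines plus HUVEC and MSC stromal cells.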
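Note: spheroids exposed to the agents for 7 days before readout.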
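Throughout, for viability, T/C: luminescence viability as percent of DMSO vehicle control wells.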

CCN1CCN(Cc2ccc(Nc3ncc(F)c(-c4cc(F)c5nc(C)n(C(C)C)c5c4)n3)nc2)CC1 + CCn1c(-c2cccnc2C(C)OC)c2c3cc(ccc31)N1CCOC(CC(NC(=O)C(C(C)C)N(C)C(=O)C3(F)CCN(C(=O)C#CC(C)(C)N(C)C)CC3)C(=O)N3CCCC(N3)C(=O)OCC(C)(C)C2)C1
IC50 (second compound 0.000949 µM): > 1000 nM
IC50 (second compound 0.003 µM): 719 nM
IC50 (second compound 0.00949 µM): 876 nM
IC50 (second compound 0.03 µM): > 1000 nM
IC50 (second compound 0.0949 µM): > 1000 nM
IC50 (second compound 0.3 µM): 437 nM
viability, T/C (second compound 0.000949 µM, first compound 0.00316 µM): 96%
viability, T/C (second compound 0.000949 µM, first compound 0.01 µM): 92%
viability, T/C (second compound 0.000949 µM, first compound 0.0316 µM): 67.3%
viability, T/C (second compound 0.000949 µM, first compound 0.1 µM): 83.8%
viability, T/C (second compound 0.000949 µM, first compound 0.316 µM): 66.4%
viability, T/C (second compound 0.000949 µM, first compound 1 µM): 46.7%
viability, T/C (second compound 0.003 µM, first compound 0.00316 µM): 108%
viability, T/C (second compound 0.003 µM, first compound 0.01 µM): 98.5%
viability, T/C (second compound 0.003 µM, first compound 0.0316 µM): 65.6%
viability, T/C (second compound 0.003 µM, first compound 0.1 µM): 73%
viability, T/C (second compound 0.003 µM, first compound 0.316 µM): 66.6%
viability, T/C (second compound 0.003 µM, first compound 1 µM): 40.9%
viability, T/C (second compound 0.00949 µM, first compound 0.00316 µM): 105%
viability, T/C (second compound 0.00949 µM, first compound 0.01 µM): 105%
viability, T/C (second compound 0.00949 µM, first compound 0.0316 µM): 55.3%
viability, T/C (second compound 0.00949 µM, first compound 0.1 µM): 74.4%
viability, T/C (second compound 0.00949 µM, first compound 0.316 µM): 59.8%
viability, T/C (second compound 0.00949 µM, first compound 1 µM): 45.7%
viability, T/C (second compound 0.03 µM, first compound 0.00316 µM): 112%
viability, T/C (second compound 0.03 µM, first compound 0.01 µM): 94.2%
viability, T/C (second compound 0.03 µM, first compound 0.0316 µM): 57.5%
viability, T/C (second compound 0.03 µM, first compound 0.1 µM): 65.8%
viability, T/C (second compound 0.03 µM, first compound 0.316 µM): 66.1%
viability, T/C (second compound 0.03 µM, first compound 1 µM): 43.4%
viability, T/C (second compound 0.0949 µM, first compound 0.00316 µM): 103%
viability, T/C (second compound 0.0949 µM, first compound 0.01 µM): 88.3%
viability, T/C (second compound 0.0949 µM, first compound 0.0316 µM): 53.4%
viability, T/C (second compound 0.0949 µM, first compound 0.1 µM): 69%
viability, T/C (second compound 0.0949 µM, first compound 0.316 µM): 65%
viability, T/C (second compound 0.0949 µM, first compound 1 µM): 46.6%
viability, T/C (second compound 0.3 µM, first compound 0.00316 µM): 100%
viability, T/C (second compound 0.3 µM, first compound 0.01 µM): 82.5%
viability, T/C (second compound 0.3 µM, first compound 0.0316 µM): 56.4%
viability, T/C (second compound 0.3 µM, first compound 0.1 µM): 64.9%
viability, T/C (second compound 0.3 µM, first compound 0.316 µM): 57.2%
viability, T/C (second compound 0.3 µM, first compound 1 µM): 40.9%
